In BindingDB's records for doi:10.1101/2020.09.12.293498 (Pfizer, 2020) one finds Ki data, which are given here for one molecule.

Assay [1] has as its target Replicase polyprotein 1ab (Avian infectious bronchitis virus (strain Beaudette CK), UniProt P0C6Y2). Kind of assay: FRET protease activity assay. The protocol: (§1) PF-00835231 was evaluated against 3CLpro from a variety of other coronaviruses representing alpha, beta and gamma groups of Coronaviridae, using biochemical F rster Resonance Energy Transfer (FRET) protease activity assays.

Assay [2] concerns the target Replicase polyprotein 1ab (Human coronavirus HKU1 (isolate N5), UniProt P0C6X4). In words: FRET protease activity assay. The protocol: as §1

Each structure is given as a SMILES string.

Chain of Replicase polyprotein 1ab (Avian infectious bronchitis virus (strain Beaudette CK), UniProt P0C6Y2) (P0C6Y2 2780-3086 limits assumed): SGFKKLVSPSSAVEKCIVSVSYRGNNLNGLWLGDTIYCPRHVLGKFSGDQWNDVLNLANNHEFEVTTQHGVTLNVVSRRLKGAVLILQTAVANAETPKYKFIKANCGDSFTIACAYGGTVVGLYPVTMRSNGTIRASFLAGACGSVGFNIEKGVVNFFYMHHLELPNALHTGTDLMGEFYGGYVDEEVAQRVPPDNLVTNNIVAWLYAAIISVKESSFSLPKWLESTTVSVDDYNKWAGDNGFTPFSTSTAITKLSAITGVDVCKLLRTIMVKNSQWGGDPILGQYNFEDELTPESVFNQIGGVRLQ
Chain of Replicase polyprotein 1ab (Human coronavirus HKU1 (isolate N5), UniProt P0C6X4) (P0C6X4 3285-3587 limits assumed): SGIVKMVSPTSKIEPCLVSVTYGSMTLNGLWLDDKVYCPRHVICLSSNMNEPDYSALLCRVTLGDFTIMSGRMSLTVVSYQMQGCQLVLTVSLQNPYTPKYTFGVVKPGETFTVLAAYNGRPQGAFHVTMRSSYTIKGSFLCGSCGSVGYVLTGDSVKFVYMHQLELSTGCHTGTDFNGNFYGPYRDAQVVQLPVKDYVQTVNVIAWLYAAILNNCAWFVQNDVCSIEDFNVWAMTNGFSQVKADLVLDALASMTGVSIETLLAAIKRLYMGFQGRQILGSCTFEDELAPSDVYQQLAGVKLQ

Usually Ki stands for the dissociation constant of the complex between target and ligand, obtained from inhibition or displacement. Turning to `COc1cccc2[nH]c(C(=O)N[C@@H](CC(C)C)C(=O)N[C@@H](C[C@@H]3CCNC3=O)C(=O)CO)cc12` [WO2005113580-Ex-02], the results for the Ki in assay [1] and in assay [2] were 4 nM and 0.85 nM, respectively.
